Where “and” joins values, the source holds several entries; their conditions need not be identical. Equal entries are not always repeated.
Test system: bovine embryos
Assay: Example 9: L-NAME (1 or 1000 nM) added to mBECM containing serum and Hb, pre-hatching development
Type: cell-based
Set-up: key to Least square mean of embryos developed to 16-cell / Least square mean of embryos developed to Blastocyst / Least square mean of embryos developed to 2-cell / Least square mean of embryos developed to 8-cell / Least square mean of embryos developed to Morula: fraction developed; each embryo scored 1 = developed, 0 = not developed
Settings: Hb 1 μg/ml, no L-NAME
Method: The basic medium used for maturation of oocytes was tissue culture medium (TCM)-199 with Earle's salts, buffered with 25 mM HEPES (Gibco BRL, Grand Island, N.Y.) and supplemented with 10% (v/v) heat-inactivated fetal bovine serum (FBS; Hyclone Laboratories, Logan, Utah), 1 μg/ml estradiol-17β (NOBL Laboratories, Sioux Center, Iowa), 3 μg/ml bovine FSH (NOBL Laboratories), 6 μg/ml bovine LH (NOBL Laboratories), and 25 μg/ml gentamycin (Sigma Chemical Co., St. Louis, Mo.). The basic medium used for treatment of spermatozoa and fertilization of oocytes was a modified Tyrode's medium (J. Parrish et al., Capacitation of bovine sperm by heparin. Biol. Reprod. 38:1171-1180 (1988)), supplemented with 0.25 mM sodium pyruvate (Gibco BRL), 6 mg/ml fatty acid (FA)-free BSA (No. A-6003, Sigma), 15 μg/ml calcium heparin from porcine intestinal mucosa (183 USP/mg; H-8398, Sigma), and 25 μg/ml gentamycin. Modified bovine embryo culture medium (mBECM) containing 10 μM β-mercaptoethanol was used for culture of embryos, as described in J. Lim et al., “Roles of growth factors in the development of bovine embryos fertilized in vitro and cultured singly in a defined medium,” Reprod. Fertil. Dev., 8:1199-1205 (1996). mBECM supplemented with 10% (v/v) FBS was used for co-culturing inseminated oocytes with CGC. Osmolarity of the medium was maintained within the range of 265-290 mOsm.
All cumulus-oocyte complexes (COC) were collected in Madison, Wis. (BOMED, Inc.) and were shipped in 2 ml of maturation medium in a battery powered incubator via overnight express mail service. Oocytes matured during transit and arrived within 24 h after exposure to maturation medium, pre-equilibrated at 39° C. in 5% CO2 in air. At 22 to 24 h after exposure to the medium, the COCs were inseminated in vitro as described in J. Lim et al., “Intracytoplasmic glutathione concentration and the role of β-mercaptoethanol in preimplantation development of bovine embryos,” Theriogenology, 46:429-439 (1996). At 18 h post-insemination, COCs were cultured in groups (28-40 embryos) in a 4-well multidish (Nunc, Roskilde, Denmark) containing 0.8-ml of mBECM. Embryos were dislodged from CGC at 36 to 48 h post-insemination.
In Example 9, IVF embryos were cultured in MBECM supplemented as follows: 1) no addition (control), 2) Hb (1 μg/ml), 3) Hb plus L-NAME (1 nM), and 4) Hb plus L-NAME (1000 nM). Embryonic development was evaluated up to 192 h post-insemination. A total of 384 oocytes were inseminated, and were randomly and equally allotted to 4 replicates.
Embryos developed to the 2-cell, 8-cell, 16-cell, morula, and blastocyst stages at the pertinent observation times were individually scored ‘1’ (developed). Embryos that had not developed to these stages at the same times were scored ‘0’ (non-developed). Sums of the scores at each stage of development were evaluated by analysis of variance using a general linear model (PROC-GLM) in the SAS statistical programming package (1991). In Example 8, the combined effects of Hb addition and month of oocyte collection were first examined in a 2×7 factorial arrangement. Overall differences in embryonic development in Hb-free and Hb-containing culture systems were further evaluated. […] Differences were regarded as statistically significant where P values were less than 0.05.

hemoglobin [Hb]
Number of embryos developed to 2-cell (96 embryos, 48 h): 68 | Number of embryos developed to 8-cell (96 embryos, 60 h): 54 | Number of embryos developed to 16-cell (96 embryos, 120 h): 47 | Number of embryos developed to Morula (96 embryos, 144 h): 35 | Number of embryos developed to Blastocyst (96 embryos, 192 h): 30 | Least square mean of embryos developed to 2-cell (48 h): 0.708 | Least square mean of embryos developed to 8-cell (60 h): 0.563 | Least square mean of embryos developed to 16-cell (120 h): 0.489 | Least square mean of embryos developed to Morula (144 h): 0.365 | Least square mean of embryos developed to Blastocyst (192 h): 0.312 and 0.313

From patent US6864086B2, “Nitric oxide-scavenging system for culturing oocytes, embryos, or other cells” (Board of Supervisors of Louisiana State University and …, priority 1998, dated 2005)
